The text below walks through data of patent publication US8377468B2, “Dry wound dressing and drug delivery system” (Rexaderm, Inc., priority 2006, dated 2013).

In the assay the test system is diabetic leg ulcer. The experiment in a line: Case report: treatment of a diabetic leg ulcer. Type of assay: in vivo, human. The text has this:
FIG. 1-6 are a series of 6 pictures taken sequentially after treatment of a leg ulcer, which had persisted for over 6 months without healing, using the dry dressing described herein that contained human cellular fibronectin (cFN).
The cFN dressing was held on with either a 4×4 sponge and tape or with a BAND-AID™ (adhesive bandage).
A few months after the lesion occurred, a dermatologist obtained a biopsy sample, and the ulcer became infected, resulting in a larger lesion that was greatly inflamed. The lesion was treated with Avelox™. It appeared to heal in a few months, when the patient removed what appeared to be dead skin. The lesion opened again, and the patient treated it with Neosporin, Iodine, and Merthiolate. The dermatologist took a swab of the lesion. After the patient used the Bactro-Ban (Muciprocin) recommended by the dermatologist for two weeks, the wound became worse so the patient sealed it with Merthiolate. A bleeding lesion the size of a nickel persisted. The patient began treatment with cFN wound dressing of Example 2 about two weeks later, changing the dressing every 48 hours except for the first day. (The first change was at 24 hours). For the first 4 days, the material was fixed to the wound with a 4×4 gauze pad and an ACE bandage, then with a Band-Aid. […]

Consider `C/C(=C\C(=O)OCCCCCCCCC(=O)O)C[C@@H]1OC[C@H](C[C@@H]2O[C@H]2[C@@H](C)[C@H](C)O)[C@@H](O)[C@H]1O` [Bactro-Ban, Muciprocin], for which the lesion size (FIG. 1, after wound was treated for two weeks) was 12-15 mm. Moreover, under “used for two weeks”, the wound outcome is “became worse”.
